Data: patent US20200055871A1, “ACTIVATORS OF THE RETINOIC ACID INDUCIBLE GENE "RIG-I" PATHWAY AND METHODS OF USE THEREOF” (Kineta Immuno-Oncology LLC, priority 2018, published 2020)

Assays:
[1] = tested on: murine CT26 colon carcinoma cells; experiment: Compound-induced immunogenic cell death: apoptosis (Annexin V) and calreticulin translocation by flow cytometry; format: cell-based; settings: 18 h after treatment, dose titration, FIG. 1
Description: To determine if the RIG-I agonist compounds induce immunogenic cell death in cancer cells, induction of apoptosis and the translocation of calreticulin (CRT) to the cell surface in murine CT26 colon carcinoma cells were evaluated. The translocation of CRT occurs as part of a specific RIG-I dependent danger-signaling system, and the presence of CRT on the cell membrane promotes tumor antigen uptake by the dendritic cells and leads to the induction of an antigen-specific T cell response
The induction of apoptosis and the CRT translocation were measured by flow cytometry. […] Cells were harvested 18 h after treatment and then prepared for flow cytometry using an Annexin V staining kit (Biolegend) for quantification of apoptosis, an anti-CRT antibody (Abgent) for calreticulin translocation, and the Live/Dead-Violet staining kit (Thermofisher) for cell viability. Induction of apoptosis and translocation of calreticulin (CRT) to cell surface by live cells was determined by tri-color flow cytometry using FITC-labeled Annexin V, Live/Dead-iolet (LDV), and APC-anti-CRT. Apoptotic cells were defined as Annexin V^+ and calreticulin translocation to cell surface was quantified by mean fluorescent intensity (MFI) of calreticulin^+ live cells (CRT^+ LDV^−). […]

[2] = tested on: RIG-I deficient CT26 RIG-I−/− cells; experiment: CXCL10 secretion by RIG-I deficient CT26 RIG-I−/− cells (ELISA); format: cell-based, murine; settings: compound 5 to 20 μM, 24 h; also: key: −: about 0 pg/mL of CXCL10, or below the level of quantitation
Procedure, shortened: (§1)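 CT26 murine colon carcinoma cells, parental or CRISPR RIG-I−/−, seeded and grown 24 hr at 37° C, then treated with compounds at 10 μM, or at 5 or 20 μM for some. Secreted CXCL10 measured by ELISA in supernatants 24 h after treatment and reported in pg/mL bands.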

[3] = tested on: IRF3 signaling pathway in THP1-Lucia™ ISG cells; experiment: THP1-Lucia ISG reporter assay: induction of IRF3-dependent gene expression (secreted luciferase); format: cell-based, human; settings: 10 μM compound, PMA-differentiated cells, 18 h after stimulation
Procedure, shortened: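 PMA-differentiated THP-1 reporter cells (ISRE/ISG54 promoter driving secreted luciferase), plus CRISPR IRF3−/− line, treated with compounds at 5–20 μM (mostly 10 μM). Luciferase measured 18 h later; values are fold increase over untreated background, binned from <2.4 to ≥40.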

[4] = tested on: IRF3-deficient THP1-Lucia™ ISG IRF3−/− cells; experiment: THP1-Lucia ISG IRF3−/− reporter assay (IRF3-deficient control cells); format: cell-based, human; settings: compound 5 to 20 μM, 18 h
Description: The promoter was comprised of five IFN-stimulated response elements (ISRE) fused to an ISG54 minimal promoter which is unresponsive to NF-kB or AP-1 pathways. […] The IRF3-deficient THP1-Lucia™ ISG IRF3−/−reporter cell line was generated by CRISPR technology from the parent THP1-Lucia™ ISG reporter cell line.
THP1-Lucia™ ISG cells and IRF3-deficient THP1-Lucia™ ISG IRF3−/−cells were differentiated with PMA (100 ng/ml) and stimulated with compounds at the indicated concentrations (5 to 20 μM), positive control, or not treated (background). Luciferase secretion was quantified using the QUANTI-Luc luciferase assay system (InvivoGen) 18 h after stimulation. Data are shown as fold increase luciferase activity over background in Table 7 and represent the IRF3-dependent ISG54 promoter activity by the THP1-Lucia™ ISG cells in response to compounds. […] The fold increase of compounds (10 μM, *20 μM, **5 μM) induced IRF3 dependent luciferase activity is indicated as follows: “≠” indicates less than 2.4 fold increase; “+” indicates a 2.4-4.9 fold increase; “++” indicates a 5-9.9 fold increase; “+++” indicates a 10-19 fold increase; “++++” indicates a 20-39 fold increase; “+++++” indicates greater than or equal to 40 fold increase.

[5] = tested on: murine CT26 colon carcinoma cells; experiment: RIG-I dependent CXCL10 secretion by CT26 cells (ELISA); format: cell-based; settings: 10 μM compound, supernatant 24 h after stimulation
Procedure, shortened: as §1

## N-{5,12-dithia-3-azatricyclo[7.3.0.0^2,^6]dodeca-1,3,6,8,10-pentaen-11-yl}-3-[4-(morpholin-4-yl)butoxy]-[1,1′-biphenyl]-4-carboxamide [Example 62]
[1]
  induction of immunogenic cell death (apoptosis, calreticulin translocation to cell surface): induction of immunogenic cell death
[2]
  CXCL10 secretion, CT26 RIG-I−/−: −
[3]
  fold increase of IRF3-dependent luciferase activity over background, THP1 ISG: +++ (a 10-19 fold increase)
[4]
  fold increase of luciferase activity, THP1 ISG IRF3−/−: − (less than 0.5 fold above baseline was considered below the level of quantitation)
[5]
  CXCL10 secretion, CT26: ++++ (800 to 1599 pg/mL)
